Laboratory results reported in patent US7837670B2, “Methods and devices for delivering therapeutic agents into the prostate gland” (Boston Scientific Scimed, Inc., priority 2005, dated 2010).

Assays:
[1] = Autoradiography of the prostate after transurethral catheter injection of tritium labeled agent
[2] = Parallel autoradiography of liver and urogenital organs to test for regurgitation or escape into the blood stream
[3] = tested on: BPH; details: only after 6 months of oral treatment; cited from earlier work
[4] = 6 hours after transurethral injection of 150 uCi 3H-flutamide
[5] = 24 hours after transurethral injection of 150 uCi 3H-flutamide
[6] = 48 hours after transurethral injection of 150 uCi 3H-flutamide

Molecule	diffuse (non-nuclear, including stroma) activity in prostate ([1]; 1 hour after transurethral injection of 150 uCi 3H-flutamide)	free (extra-nuclear) activity in prostate [1, 4]	glandular nuclear activity in prostate [1, 4]	glandular nuclear activity in prostate ([1]; 12 hours after transurethral injection of 150 uCi 3H-flutamide)	nuclear binding in prostate [1, 5]	unbound activity in prostate [1, 5]	extra-nuclear labeling in prostate [1, 6]	glandular nuclear activity in prostate [1, 6]	autoradiographic labeling of seminal vesicle, seminal duct and testicular samples ([2]; all time points (1, 6, 12, 24, 48 hours))	autoradiographic grains in the epididymis (regurgitation of the label) ([2]; epididymis, 6 hours after transurethral injection of 150 uCi)	autoradiographic grains in the liver (escape into systemic circulation) ([2]; liver, 48 hours after transurethral injection of 150 uCi)	alleviation of BPH complaints, share of cases [3]
3H-flutamide [tritium labeled flutamide]	Strong, diffuse activity scattered over the whole prostate	periphery of the gland. Practically no free (extra-nuclear)	Strong, selective glandular (but not stromal or muscular)	Strong, selective glandular (but not stromal or muscular)	Strong nuclear binding	minimal unbound activity scattered	covers the whole prostate, minimal scattered extra-nuclear	Still strong, although somewhat less activity over the	remained all negative	No grains are seen in the epididymis	No grains are seen in the liver	
CC(C)(C)NC(=O)[C@H]1CC[C@H]2[C@@H]3CC[C@H]4NC(=O)C=C[C@]4(C)[C@H]3CC[C@]12C [finasteride]												about half of the cases
